Read-outs that look alike come from different tables or passages of the source.
Legend:
Type in all cases: cell-based, human
[1] = Single-dose CCK-8 cell viability screening (adherent cells); settings: Homo sapiens, average of A549 and Jurkat % viability, 50 uM, 48 h
Experimental: (§1) In this example, the anti-cancer properties of the BB analogues described in Table 1d were evaluated. Single-dose screening approach is used for initial testing to assess the cytotoxic effect of the BB analogues (also referred to as ‘BB compounds’) on Jurkat cells (human T cell leukaemia cells) and A549 cells (human lung cancer cells).
(§2) Method for Adherent Cells (A549 Cells)
(§3) In this example, 5000 cells/100 uL were seeded in 96-well plates and incubate at 37° C.+5% CO2 overnight. Media were replaced with 100 uL of 50 uM compound per well in 6 replicates. The following controls were prepared.
(§4) Blank control: 100 uL 0.1% DMSO in media with no cells per well.
(§5) Positive control: 100 uL of 10 uM 5-flurouracil per well.
(§6) Negative control: 100 uL of 0.1% DMSO in media per well.
(§7) Each 96-well plate included 7 compounds and the complete set of controls (in 6 replicates).
(§8) Cells were incubated at 37° C.+5% CO2 for 46 hours. 10 uL of CCK8 solution was added to each well. Cells were then incubated at 37° C.+5% CO2 for 2 hours. Absorbance at 450 nm was measured using a multiplate reader.
(§9) Viability was calculated using the equation: […]
(§10) The benchmark in Table 2 was used to define the activities of each compound.

A549 cells = assay: as above; settings: Homo sapiens, A549, 48 h
Experimental: as §1, §2, §3, §4, §5, §6, §7, §8, §9, §10

Jurkat cells = assay: Single-dose CCK-8 cell viability screening (suspension cells); settings: Homo sapiens, Jurkat, 48 h
Experimental: as §1
Method for Suspension Cells (Jurkat Cells)
5000 cells/90 uL were seeded in 96-well plates. 10 uL of 500 uM compound (10×) was added to each well in 6 replicates. The following controls were prepared.
Blank control: 10 uL 1% DMSO in media with no cells per well.
Positive control: 10 uL of 100 uM 5-flurouracil (10×) per well.
Negative control: 10 uL of 1% DMSO in media (10×) per well.
Each 96-well plate included 7 BB analogues and the complete set of controls (in 6 replicates).
as §8, §9, §10

[2] = A549 cells, 50 uM, 48 h, CCK-8, read-out: % Viability (50 uM, 48 h) A549
[3] = Jurkat cells, 50 uM, CCK-8, read-out: % Viability (50 uM, 48 h) Jurkat
[4] = read-out: % Viability (50 uM, 48 h) A549
[5] = read-out: % Viability (50 uM, 48 h) Jurkat

Compound | viability at 50 µM ([1]; A549, 48 h) [%] | viability at 50 µM (A549 cells; [2]) [%] | viability at 50 µM (Jurkat cells; [3]) [%] | viability at 50 µM (A549 cells; [4]) [%] | viability at 50 µM (Jurkat cells; [5]) [%] | viability at 50 µM [1] [%] | viability at 50 µM (A549 cells; read-out: % Viability (50 uM, 48 h) A549, A549 cells, 50 uM, 48 h, CCK-8) [%] | viability at 50 µM (Jurkat cells; read-out: % Viability (50 uM, 48 h) Jurkat, Jurkat cells, 50 uM, 48 h, CCK-8) [%]
CC(C)(C)[C@]1(O)C[C@@H]2OC(=O)C[C@@]23C(=O)O[C@@H]2N(c4ccc(C#N)cc4)C(=O)[C@H](OC(=O)c4ccccc4)[C@]213 [JW107, (3aS,5aS,8R,9R,10aS)-9-(tert-butyl)-6-(4-cyanophenyl)-9-hydroxy-2,4,7-trioxodecahydrofuro [3″,2″:2′,3′]cyclopenta [1′,2′:3,4]furo [2,3-b]pyrrol-8-yl benzoate] | 72.7 | 75.2 | 70.2 |  |  |  |  | 
CC(C)(C)[C@]1(O)C[C@@H]2OC(=O)C[C@@]23C(=O)O[C@@H]2N(c4ccccc4)C(=O)[C@H](O)[C@]213 [JW116, (3aS,5aS,8R,8aS,9R,10aS)-9-(tert-butyl)-8,9-dihydroxy-6-phenyltetrahydro-4H,9H-furo[3″,2″:2′,3′]cyclopenta[1′,2′:3,4]furo[2,3-b]pyrrole-2,4,7(3H,8H)-trione] | 91.2 |  |  | 77.7 | 105 |  |  | 
CC(C)(C)[C@]1(O)C[C@@H]2OC(=O)C[C@@]23C(=O)O[C@@H]2N(C[C@H]4CCCO4)C(=O)[C@H](OC(=O)c4ccccc4)[C@]213 [P-5, (3aS,5aS,8R,8aS,9R,10aS)-9-(tert-butyl)-9-hydroxy-2,4,7-trioxo-6-(((R)-tetrahydrofuran-2-yl)methyl) octahydro-4H,9H-furo [3″,2″:2′,3′]cyclopenta [1′,2′:3,4]furo[2,3-b]pyrrol-8-yl benzoate] | 87.2 | 98.7 | 75.7 |  |  |  |  | 
CC(C)(C)[C@]1(O)C[C@@H]2OC(=O)C[C@@]23C(=O)O[C@@H]2N(c4cc(F)cc(F)c4)C(=O)[C@H](OC(=O)c4ccccc4)[C@]213 [P-19, (3aS,5aS,8R,8aS,9R,10aS)-9-(tert-butyl)-9-hydroxy-2,4,7-trioxo-6-(3,5-difluoro-phenyl)octahydro-4H,9H-furo [3″,2″:2′,3′]cyclopenta [1′,2′:3,4]furo [2,3-b]pyrrol-8-yl benzoate] | 60.2 | 50.2 | 70.2 |  |  |  |  | 
CC(C)(C)[C@]1(O)C[C@@H]2OC(=O)C[C@@]23C(=O)O[C@@H]2N(c4ccc(F)cc4)C(=O)[C@H](OC(=O)c4ccccc4)[C@]213 [P-28, (3aS,5aS,8R,9R,10aS)-9-(tert-butyl)-9-hydroxy-2,4,7-trioxo-6-(4-fluorophenyl)octahydro-4H,9H-furo [3″,2″:2′,3′]cyclopenta [1′,2′:3,4]furo [2,3-b]pyrrol-8-yl benzoate] | 72.7 |  |  | 76.2 | 69.2 |  |  | 
Cc1ccc(N2C(=O)[C@H](OC(=O)c3ccccc3)[C@@]34[C@@H]2OC(=O)[C@@]32CC(=O)O[C@H]2C[C@@]4(O)C(C)(C)C)cc1 [P-30, (3aS,5aS,8R,9R,10aS)-9-(tert-butyl)-9-hydroxy-2,4,7-trioxo-6-(toluyl)octahydro-4H,9H-furo [3″,2″:2′,3′]cyclopenta [1′,2′:3,4]furo [2,3-b]pyrrol-8-yl benzoate] | 59.1 | 56.9 | 61.3 |  |  |  |  | 
Cc1cccc(N2C(=O)[C@H](OC(=O)c3ccccc3)[C@@]34[C@@H]2OC(=O)[C@@]32CC(=O)O[C@H]2C[C@@]4(O)C(C)(C)C)c1 [P-33, (3aS,5aS,8R,9R,10aS)-9-(tert-butyl)-9-hydroxy-2,4,7-trioxo-6-(3-methylphenyl)octahydro-4H,9H-furo [3″,2″:2′,3′]cyclopenta [1′,2′:3,4]furo [2,3-b]pyrrol-8-yl benzoate] | 63.5 | 61.1 | 66 |  |  |  |  | 
Cc1ccccc1N1C(=O)[C@H](OC(=O)c2ccccc2)[C@@]23[C@@H]1OC(=O)[C@@]21CC(=O)O[C@H]1C[C@@]3(O)C(C)(C)C [P-34, (3aS,5aS,8R,9R,10aS)-9-(tert-butyl)-9-hydroxy-2,4,7-trioxo-6-(2-methylphenyl)octahydro-4H,9H-furo [3″,2″:2′,3′]cyclopenta [1′,2′:3,4]furo [2,3-b]pyrrol-8-yl benzoate] | 77 | 80.2 | 73.8 |  |  |  |  | 
CC(C)(C)[C@]1(O)C[C@@H]2OC(=O)C[C@@]23C(=O)O[C@@H]2NC(=O)[C@H](OC(=O)c4ccccc4)[C@]213 [XBB-004, (3aS,5aS,8R,8aS,9R,10aS)-9-(tert-butyl)-9-hydroxy-2,4,7-trioxooctahydro-4H,9H-furo[3″,2″:2′,3′]cyclopenta[1′,2′:3,4]furo[2,3-b]pyrrol-8-yl benzoate] |  |  |  | 98.5 | 95 | 96.7 |  | 
C=C(C)[C@@]1(C)C[C@@H]2OC(=O)C[C@@]23C(=O)O[C@@H]2OC(=O)[C@H](OC(C)=O)[C@]213 [XBB-009] |  |  |  | 103 | 107 | 105 |  | 
CC(=O)O[C@H]1C(=O)N[C@H]2OC(=O)[C@]34CC(=O)O[C@H]3C=C(C(C)(C)C)[C@@]214 [XBB-010, (3aS,5aS,8R,8aS,10aS)-9-(tert-butyl)-2,4,7-trioxo-2,3,5a,6,7,8-hexahydro-4H,10aH-furo[3″,2″:2′,3′]cyclopenta[1′,2′:3,4]furo[2,3-b]pyrrol-8-yl acetate] | 114 |  |  |  |  |  | 112 | 115
C=C(C)[C@@]1(C)C[C@@H]2OC(=O)C[C@@]23C(=O)O[C@@H]2NC(=O)[C@H](O)[C@]213 [XBB-013] |  |  |  | 100 | 107 | 104 |  | 
CC(C)(C)[C@]1(O)C[C@@H]2OC(=O)C[C@@]23C(=O)O[C@@H]2N(Cc4ccccc4)C(=O)[C@H](OC(=O)c4ccccc4)[C@]213 [XBB-016] | 106 | 105 | 107 |  |  |  |  | 
COc1ccc(CN2C(=O)[C@H](OC(=O)c3ccccc3)[C@@]34[C@@H]2OC(=O)[C@@]32CC(=O)O[C@H]2C[C@@]4(O)C(C)(C)C)c(OC)c1 [XBB-018, (3aS,5aS,8R,8aS,9R,10aS)-6-(2,4-dimethoxy-benzyl-9-(tert-butyl)-9-hydroxy-2,4,7-trioxooctahydro-4H,9H-furo [3″,2″:2′,3′]cyclopenta [1′,2′:3,4]furo [2,3-b]pyrrol-8-yl benzoate] | 94.5 | 86.5 | 102 |  |  |  |  | 
CC(C)(C)OC(=O)N1CCC(CCN2C(=O)[C@H](OC(=O)c3ccccc3)[C@@]34[C@@H]2OC(=O)[C@@]32CC(=O)O[C@H]2C[C@@]4(O)C(C)(C)C)CC1 [XBB-023, tert-butyl 4-(2-((3aS,5aS,8R,8aS,9R,10aS)-8-(benzoyloxy)-9-(tert-butyl)-9-hydroxy-2,4,7-trioxohexahydro-4H,9H-furo[3″,2″:2′,3′]cyclopenta[1′,2′:3,4]furo[2,3-b]pyrrol-6(5aH)-yl)ethyl)piperidine-1-carboxylate] | 71.7 | 72.1 | 71.3 |  |  |  |  | 
CC(C)(C)OC(=O)N1CCC(CCCN2C(=O)[C@H](OC(=O)c3ccccc3)[C@@]34[C@@H]2OC(=O)[C@@]32CC(=O)O[C@H]2C[C@@]4(O)C(C)(C)C)CC1 [XBB-025] | 91.7 | 100 | 83.3 |  |  |  |  | 
Cc1c(CCN2C(=O)[C@H](OC(=O)c3ccccc3)[C@@]34[C@@H]2OC(=O)[C@@]32CC(=O)O[C@H]2C[C@@]4(O)C(C)(C)C)[nH]c2ccccc12 [XBB-029, (3aS,5aS,8R,8aS,9R,10aS)-9-(tert-butyl)-9-hydroxy-6-(2-(3-methyl-1H-indol-2-yl)ethyl)-2,4,7-trioxooctahydro-4H,9H-furo [3″,2″:2′,3′]cyclopenta[1′,2′:3,4]furo[2,3-b]pyrrol-8-yl benzoate] | 94.8 | 96.1 | 93.4 |  |  |  |  | 
CC(C)(C)[C@]1(O)C[C@@H]2OC(=O)C[C@@]23C(=O)O[C@@H]2N(c4ccccc4)C(=O)[C@H](OC(=O)c4ccccc4)[C@]213 [XBB-034, (3aS,5aS,8R,8aS,9R,10aS)-9-(tert-butyl)-9-hydroxy-2,4,7-trioxo-6-phenyloctahydro-4H,9H-furo[3″,2″:2′,3′]cyclopenta [1′,2′:3,4]furo[2,3-b]pyrrol-8-yl benzoate] |  |  |  | 56 | 89.1 | 72.5 |  | 
